According to paper PMC11555678, “Improved Broad Spectrum Antifungal Drug Synergies with Cryptomycin, a Cdc50-Inspired Antifungal Peptide” (ACS Infectious Diseases, 2024):
Like-named read-outs stand apart in the source and are kept apart here.

Columns and labels:
C. albicans SC5413 [1] = test: microbe, parasite or virus in culture; format: cell-based, Candida albicans; details: Candida albicans, SC5413; compound alone; RPMI1640, 37 °C, 48 h; read-out: MIC
Method in brief: (§1)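 Broth microdilution per CLSI M27 in RPMI1640, compounds serially diluted 2-fold from DMSO stock. Overnight YPD cultures washed, resuspended and adjusted to 5000 cfu/mL in RPMI as inoculum. Plates incubated 2 days at 37 °C.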

C. auris B11245 [2] = test: microbe, parasite or virus in culture; format: cell-based, Candida auris
Method in brief: as §1

A. fumigatus AF293 = test: microbe, parasite or virus in culture; format: cell-based, Aspergillus fumigatus
Cn MRL862 = format: cell-based, Cryptococcus neoformans; details: RPMI1640, 37 °C, 48 h
Method: (§2) All microdilution assays with fungi were carried out in accordance with CLSI protocols from M27 for yeasts and M38 for filamentous fungi, respectively, unless otherwise specified.[64],[65] Briefly, 96-well plates were charged with RPMI1640 media, with operating volume in the first column, 200 μL, and half operating volume, 100 μL, in the remaining wells. Drug stock solution in DMSO was aliquoted into the first well in each row. Half of the volume in the dosed well was serially diluted 2-fold until column 11. Column 11 was used as the negative growth control, and column 12 was used as the positive growth control. ON yeast cultures in YPD were washed twice in DD-H2O, resuspended in PBS, and adjusted to 5000 cfu/mL in RPMI. The 96-well plate was inoculated with 100 μL aliquots of cell suspension per well. Plates were incubated at 37 °C for 2 days.
(§3) To assess drug synergy, the initial media charged to the plate contained the peptide at twice the final operating concentration; the remaining processing steps were identical to the MIC experiment. Upon addition of 100 μL of inoculant, the final operating concentration was achieved. Control MIC plates were prepared alongside drug synergy plates to account for the day-to-day variability in any individual MIC. FIC index is computed using eq 1. All MIC assays and drug synergy assays were completed with two technical replicates per 96-well plate and a minimum of two biological replicates per drug combination. If a difference in MIC between the two technical replicates on the plate were observed, only the higher concentration was reported as the MIC to reduce the possibility of type 1 error (false positive) [drawing 1] 1

Cg FKS1 S629P = test: Drug synergy (MIC in peptide-supplemented media); format: cell-based, Candida glabrata; details: RPMI1640, 37 °C, 48 h
Method: as §2, §3

Cg FKS2 S663P = test: Drug synergy (MIC in peptide-supplemented media); format: cell-based, Candida glabrata; details: RPMI1640, 37 °C, 48 h
Method: as §2, §3

C. albicans SC5413 [3] = format: cell-based, Candida albicans; details: RPMI1640, 37 °C, 48 h; for MIC of antifungal in combination with KKOO: azole MICs unclear (intermediate phenotype); for MIC of antifungal in combination with KKOO-NH2: azole MICs could not be determined (intermediate phenotype)
Method: as §2, §3

C. auris B11245 [4] = format: cell-based, Candida auris; details: RPMI1640, 37 °C, 48 h; for MIC of antifungal in combination with KKOO-NH2: MIC = well with <20% growth
Method: as §2, §3

Cn Crm1-oe = test: microbe, parasite or virus in culture; format: cell-based, Cryptococcus neoformans; details: Cryptococcus neoformans, CRM1OE, 48 h, 37 °C
Cn apt1Δ = test: microbe, parasite or virus in culture; format: cell-based, Cryptococcus neoformans; details: Cryptococcus neoformans, 48 h, 37 °C, 48 h
Cn crm1Δ = test: microbe, parasite or virus in culture; format: cell-based, Cryptococcus neoformans; details: Cryptococcus neoformans, 48 h, 37 °C
[5] = compound alone, RPMI1640, 37 °C, 48 h, * = paradoxical growth observed (CAS)

In the case of `OC(Cn1cncn1)(Cn1cncn1)c1ccc(F)cc1F` [FLC, fluconazole], the MIC (C. albicans SC5413 [1]) is reported as over 16 µg/mL, the MIC (C. auris B11245 [2]; Candidozyma auris, B11245, 48 h) is reported as over 128 µg/mL and the MIC (C. auris B11245 [2]; [5]) is reported as over 128 µg/mL. The MIC (A. fumigatus AF293; Aspergillus fumigatus, AF293, 48 h) was over 128 µg/mL, the MIC (A. fumigatus AF293; [5]) was over 128 µg/mL and the “MIC of antifungal in combination with KKOO” value (Cn MRL862; +0 μg/mL KKOO (control)) was 32 µg/mL. The “MIC of antifungal in combination with KKOO-NH2” value (“MIC … with KKOO-NH2” for short) (Cn MRL862; +0 μg/mL KKOO-NH2 (control)) was 32 µg/mL, the “MIC … with KKOO-NH2” value (Cn MRL862; +1 μg/mL KKOO-NH2) was 32 µg/mL and the “MIC of antifungal in combination with KKOO” value (Cn MRL862; +1 μg/mL KKOO) was 64 µg/mL. For the same molecule, the “MIC … with KKOO-NH2” value (Cn MRL862; +2 μg/mL KKOO-NH2) was 32 µg/mL, the “MIC of antifungal in combination with KKOO” value (Cn MRL862; +2 μg/mL KKOO) was 32 µg/mL and the “MIC … with KKOO-NH2” value (Cn MRL862; +4 μg/mL KKOO-NH2) was 32 µg/mL. For the same molecule, the “MIC of antifungal in combination with KKOO” value (Cn MRL862; +4 μg/mL KKOO) was 32 µg/mL, the “MIC of antifungal in combination with KKOO” value (Cg FKS1 S629P; +0 μg/mL KKOO (control)) was 2 µg/mL and the “MIC … with KKOO-NH2” value (Cg FKS1 S629P; +0 μg/mL KKOO-NH2 (control)) was 2 µg/mL. The “MIC … with KKOO-NH2” value (Cg FKS1 S629P; +1 μg/mL KKOO-NH2) was 2 µg/mL, the “MIC of antifungal in combination with KKOO” value (Cg FKS1 S629P; +1 μg/mL KKOO) was 2 µg/mL and the “MIC … with KKOO-NH2” value (Cg FKS1 S629P; +2 μg/mL KKOO-NH2) was 2 µg/mL. For the same molecule, the “MIC of antifungal in combination with KKOO” value (Cg FKS1 S629P; +2 μg/mL KKOO) was 2 µg/mL, the “MIC … with KKOO-NH2” value (Cg FKS1 S629P; +4 μg/mL KKOO-NH2) was 1 µg/mL and the “MIC of antifungal in combination with KKOO” value (Cg FKS1 S629P; +4 μg/mL KKOO) was 2 µg/mL. The “MIC of antifungal in combination with KKOO” value (Cg FKS2 S663P; +0 μg/mL KKOO (control)) was 0.5 µg/mL, the “MIC … with KKOO-NH2” value (Cg FKS2 S663P; +0 μg/mL KKOO-NH2 (control)) was 0.5 µg/mL and the “MIC … with KKOO-NH2” value (Cg FKS2 S663P; +1 μg/mL KKOO-NH2) was 0.5 µg/mL. For the same molecule, the “MIC of antifungal in combination with KKOO” value (Cg FKS2 S663P; +1 μg/mL KKOO) was 0.5 µg/mL, the “MIC … with KKOO-NH2” value (Cg FKS2 S663P; +2 μg/mL KKOO-NH2) was 0.5 µg/mL and the “MIC of antifungal in combination with KKOO” value (Cg FKS2 S663P; +2 μg/mL KKOO) was 0.5 µg/mL. The “MIC … with KKOO-NH2” value (Cg FKS2 S663P; +4 μg/mL KKOO-NH2) was 0.5 µg/mL, the “MIC of antifungal in combination with KKOO” value (Cg FKS2 S663P; +4 μg/mL KKOO) was 0.5 µg/mL and the “MIC of antifungal in combination with KKOO” value (C. albicans SC5413 [3]; +0 μg/mL KKOO (control)) was over 16 µg/mL. The “MIC … with KKOO-NH2” value (C. albicans SC5413 [3]; +0 μg/mL KKOO-NH2 (control)) was over 16 µg/mL, the “MIC … with KKOO-NH2” value (C. albicans SC5413 [3]; +1 μg/mL KKOO-NH2) was over 16 µg/mL and the “MIC of antifungal in combination with KKOO” value (C. albicans SC5413 [3]; +1 μg/mL KKOO) was over 16 µg/mL. The “MIC … with KKOO-NH2” value (C. albicans SC5413 [3]; +2 μg/mL KKOO-NH2) was over 16 µg/mL, the “MIC of antifungal in combination with KKOO” value (C. albicans SC5413 [3]; +2 μg/mL KKOO) was over 16 µg/mL and the “MIC … with KKOO-NH2” value (C. albicans SC5413 [3]; +4 μg/mL KKOO-NH2) was over 16 µg/mL. The “MIC of antifungal in combination with KKOO” value (C. albicans SC5413 [3]; +4 μg/mL KKOO) was over 16 µg/mL, the “MIC of antifungal in combination with KKOO” value (C. albicans SC5413 [3]; +8 μg/mL KKOO) was 0.125 µg/mL and the “MIC of antifungal in combination with KKOO” value (C. auris B11245 [4]; +0 μg/mL KKOO (control), CAS: paradoxical growth, MIC = <20% growth) was over 128 µg/mL. The “MIC … with KKOO-NH2” value (C. auris B11245 [4]; +0 μg/mL KKOO-NH2 (control), CAS: paradoxical growth) was over 128 µg/mL, the “MIC … with KKOO-NH2” value (C. auris B11245 [4]; +1 μg/mL KKOO-NH2, CAS: paradoxical growth) was over 128 µg/mL and the “MIC of antifungal in combination with KKOO” value (C. auris B11245 [4]; +1 μg/mL KKOO, CAS: paradoxical growth, MIC = <20% growth) was over 128 µg/mL. For the same molecule, the “MIC … with KKOO-NH2” value (C. auris B11245 [4]; +2 μg/mL KKOO-NH2, CAS: paradoxical growth) was over 128 µg/mL, the “MIC of antifungal in combination with KKOO” value (C. auris B11245 [4]; +2 μg/mL KKOO, CAS: paradoxical growth, MIC = <20% growth) was over 128 µg/mL and the “MIC … with KKOO-NH2” value (C. auris B11245 [4]; +4 μg/mL KKOO-NH2, CAS: paradoxical growth) was over 128 µg/mL. The “MIC of antifungal in combination with KKOO” value (C. auris B11245 [4]; +4 μg/mL KKOO, CAS: paradoxical growth, MIC = <20% growth) was over 128 µg/mL, the “MIC of antifungal in combination with KKOO” value (C. auris B11245 [4]; +8 μg/mL KKOO) was over 128 µg/mL and the MIC (Cn Crm1-oe; YPD + 0 mM Ca2+) was 1 µg/mL. The MIC (Cn Crm1-oe; YPD + 2.5 mM Ca2+) was 2 µg/mL, the MIC (Cn Crm1-oe; YPD + 5 mM Ca2+) was 2 µg/mL and the MIC (Cn Crm1-oe; YPD + 10 mM Ca2+) was 2 µg/mL. The MIC (Cn Crm1-oe; YPD + 20 mM Ca2+) was 2 µg/mL, the MIC (Cn apt1Δ; YPD + 0 mM Ca2+) was 0.25 µg/mL and the MIC (Cn apt1Δ; YPD + 2.5 mM Ca2+) was 0.5 µg/mL. It also gave an MIC (Cn apt1Δ; YPD + 5 mM Ca2+) of 1 µg/mL, an MIC (Cn apt1Δ; YPD + 10 mM Ca2+) of 0.5 µg/mL and an MIC (Cn apt1Δ; YPD + 20 mM Ca2+) of 0.5 µg/mL. For the same molecule, the MIC (Cn crm1Δ; YPD + 0 mM Ca2+) was 4 µg/mL, the MIC (Cn crm1Δ; YPD + 2.5 mM Ca2+) was 4 µg/mL and the MIC (Cn crm1Δ; YPD + 5 mM Ca2+) was 4 µg/mL. It also gave an MIC (Cn crm1Δ; YPD + 10 mM Ca2+) of 8 µg/mL and an MIC (Cn crm1Δ; YPD + 20 mM Ca2+) of 8 µg/mL.
